Converted amounts (≈) assume the structure as drawn. Like-named read-outs stand apart in the source and are kept apart here.
Key:
[1] = cited from earlier work
[2] = tested on: wild-type P. aeruginosa PAO1; assay: microbe, parasite or virus in culture; type: cell-based, Pseudomonas aeruginosa; conditions: PAO1
Method in brief: (§1)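 Checkerboard in MHB with 5 × 10^5 CFU/mL inoculum, antibiotic and adjuvant each serially 2-fold diluted on crossed axes. Growth read as turbidity at 590 nm; FICI is the sum of each agent's MIC in combination divided by its MIC alone.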

[3] = tested on: wild-type A. baumannii ATCC 17978; assay: Checkerboard assay; type: cell-based, Acinetobacter baumannii; conditions: ATCC 17978
Method in brief: as §1

[4] = tested on: wild-type E. coli ATCC 25922; assay: microbe, parasite or virus in culture; type: cell-based, Escherichia coli
Method in brief: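 Antibiotic and adjuvant were serially diluted 2-fold against each other in MHB, inoculated at 5 × 10^5 CFU/mL and incubated at 37°C for 18 h. Growth was read as turbidity at 590 nm. FICI was the sum of each agent's combination MIC divided by its MIC alone; ≤ 0.5 counted as synergy.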

[5] = tested on: MDR P. aeruginosa clinical isolates; assay: Resistance phenotype (MICs of antibiotics) of MDR clinical isolates; type: cell-based, Pseudomonas aeruginosa
[6] = tested on: MDR A. baumannii clinical isolates; assay: as above; type: cell-based, Acinetobacter baumannii
[7] = tested on: MDR E. coli clinical isolates; assay: as above; type: cell-based, Escherichia coli
[8] = tested on: MDR K. pneumoniae clinical isolates; assay: as above; type: cell-based, Klebsiella pneumoniae
[9] = tested on: MDR E. cloacae clinical isolates; assay: as above; type: cell-based, Enterobacter cloacae
in vitro [10] = type: cell-based; conditions: human
Protocol: The degree of hemolysis induced by dUSTBβPs was determined by the amount of hemoglobin released from human erythrocytes upon incubation. Fresh human blood supplied by a commercial vendor was obtained from normal healthy volunteers following informed consent. The agent of interest was serially diluted in vehicle consisting of phosphate-buffered saline (PBS), saline, 5% glucose, or equivalents. The samples were incubated with gentle mixing at 37°C for 45 min and were subsequently centrifuged. The supernatant (plasma layer) was removed and centrifuged once more to completely pellet the cells. The plasma layer was diluted with Drabkin’s reagent and analyzed at a wavelength of 540 nm. Experiments were conducted in triplicates, and a calibration curve prepared by diluting blood (after addition of vehicle) was used to quantitate heme release. The vehicle or Triton X-100 were used as negative or positive controls, respectively.

P. aeruginosa PAO1 = type: cell-based, Pseudomonas aeruginosa; conditions: PAO1, 18 h
Protocol: (§2) The in vitro antibacterial activities of dUSTBβPs were evaluated using microbroth dilution susceptibility test, in accordance with the Clinical and Laboratory Standards Institute (CLSI) guidelines ([Clinical and Laboratory Standards Institute, 2019]). Overnight-grown bacterial culture diluted in saline to 0.5 McFarland turbidity was successively diluted 1:50 in Mueller-Hinton broth (MHB) to achieve a final concentration of 5 × 10^5 colony forming units (CFU)/mL for inoculation. The agents were serially diluted 2-fold in MHB on a 96-well plate; mixed with bacterial inoculum of equal volumes, and incubated at 37°C for 18 h. Antibacterial activity was determined by the minimum inhibitory concentration (MIC), which is the lowest concentration of agent required for inhibition of visible bacterial growth in the form of turbidity. Confirmation of turbidity was done using an EMax Plus microplate reader (Molecular Devices, United States) at a wavelength of 590 nm. Wells comprising MHB alone or MHB inoculated with bacteria were used as negative or positive controls, respectively.

A. baumannii ATCC 17978 [11] = type: cell-based, Acinetobacter baumannii; conditions: ATCC 17978, 18 h
Protocol: as §2

E. coli ATCC 25922 [12] = type: cell-based, Escherichia coli; conditions: ATCC 25922, 18 h
Protocol: as §2

[13] = tested on: MDR clinical isolates of A. baumannii; type: cell-based, Acinetobacter baumannii; conditions: MDR clinical isolates of, 18 h
Protocol: (§3) The adjuvant activities of dUSTBβPs were evaluated using checkerboard assay as previously described ([Berry et al., 2019]). Overnight-grown bacterial culture diluted in saline to 0.5 McFarland turbidity was successively diluted 1:50 in MHB to achieve a final concentration of 5 × 10^5 CFU/mL for inoculation. The antibiotic and adjuvant were serially diluted 2-fold along the x-axis and y-axis, respectively, resulting in varying concentrations of both agents in each well. Subsequently, the 96-well plate was incubated with equal volumes of bacterial inoculum at 37°C for 18 h. Confirmation of turbidity was done using an EMax Plus microplate reader (Molecular Devices, United States) at a wavelength of 590 nm. Wells comprising MHB alone or in the presence of bacterial cells were used as negative or positive controls, respectively. Fractional inhibitory concentration index (FICI) is determined by adding the FICs of both antibiotic and adjuvant. The FIC of the antibiotic is calculated by dividing the MIC of the antibiotic in the presence of the adjuvant by the MIC of the antibiotic alone. Similarly, the FIC of the adjuvant is calculated by dividing the MIC of the adjuvant in the presence of the antibiotic by the MIC of the adjuvant alone. FICI ≤ 0.5, 0.5 < x ≤ 4, and >4 were deemed synergistic, additive, and antagonistic, respectively ([Meletiadis et al., 2010]).

MDR K. pneumoniae = type: cell-based, Klebsiella pneumoniae; conditions: MDR, 18 h
Protocol: as §3

A. baumannii ATCC 17978 [14] = type: cell-based, Acinetobacter baumannii; conditions: not told
Protocol: (§4) The ability of dUSTBβP 3 to permeabilize the OM of Acinetobacter baumannii ATCC 17978 and Escherichia coli ATCC 25922 was assessed using 1-N-phenylnaphthylamine (NPN) as previously described with minor modifications ([Yang et al., 2017]; [Akhoundsadegh et al., 2019]). Overnight grown culture was subcultured (1 in 100) in fresh LB broth and grown to a mid-logarithmic phase (OD600 = 0.4–0.6). […] NPN (10 μM final concentration) was added to a black 96-well plate containing the cell culture and incubated in 5 mM HEPES (pH 7.2) supplemented with 5 mM glucose and 5 μM carbonyl cyanide 3-chlorophenylhydrazone at room temperature for 30 min in darkness. Varying concentrations of compound were added onto the suspension, and the resulting change in NPN fluorescence was measured continuously (every 30 s) on a SpectraMax M2 microplate reader (Molecular Devices, United States) at an excitation wavelength of 350 nm and an emission wavelength of 420 nm. Cells with NPN and the OM permeabilizer PMBN served as a positive control, while cells with NPN alone served as a negative control. Three replicates were conducted, and the data were corrected for any background fluorescence.

E. coli ATCC 25922 [15] = type: cell-based, Escherichia coli; conditions: not told
Protocol: as §4

in vitro [16] = conditions: human, plasma
Protocol: Stability of dUSTBβP 3 was evaluated in human plasma. […] The supernatant was analyzed by HPLC-tandem mass spectrometry using selected reaction monitoring. The % compound remaining was determined by comparing peak areas at different time points to time zero. Assuming first-order kinetics, the half-life was extrapolated from the slope of the initial linear range of the logarithmic curve of compound remaining over time. Experiments were performed in duplicates, and the reference compounds include propantheline and propoxycaine.

in vitro [17] = type: cell-based; conditions: human; remark: listed apart in the source
Protocol: (§5) Cell viability assay was performed essentially as previously described ([[…] et al., 2019]). […] The cells were detached with trypsin and equal numbers of cells (8,000 cells in 50 μL) were dispersed into five rows of each column in 96-well plate; the remaining three rows of each column, designated as blanks, received 50 μL of the media without cells. After 24 h incubation, aliquots of 50 μL of dUSTBβP 3 at varying concentrations were added to each well and incubated for 48 h. […] Values from the wells without cells (blank wells) were subtracted from the corresponding sample wells and cell viability values of the treated samples relative to the vehicle controls set to 100% was determined. […] The results represent the mean ± SD of two independent experiments with five samples per experiment. […] Colistin was used as a negative control and doxorubicin, an anticancer drug, was used as a positive control.

Cell viability assay = type: cell-based; conditions: human
Protocol: as §5

[18] = antibiotic alone (Supplementary Table 7)
[19] = antibiotic with dUSTBβP 3 at 8 μg/mL

For `CCCCCCCCCCNCCN[C@@]1(C)C[C@H](O[C@H]2[C@H](Oc3c4cc5cc3Oc3ccc(cc3Cl)[C@@H](O)[C@@H](NC(=O)[C@@H](CC(C)C)NC)C(=O)N[C@@H](CC(N)=O)C(=O)N[C@H]5C(=O)N[C@H]3C(=O)N[C@H](C(=O)N[C@H](C(=O)O)c5cc(O)c(CNCP(=O)(O)O)c(O)c5-c5cc3ccc5O)[C@H](O)c3ccc(c(Cl)c3)O4)O[C@H](CO)[C@@H](O)[C@@H]2O)O[C@@H](C)[C@H]1O` [telavancin], the “In vivo elimination half-life” value ([1]; ref Chen and Lu, 2020) is given as 8 h.
For Colistin, the MICantibiotic [2, 18] was 1, the MICcombo [2, 19] was 1 µg/mL and the MICantibiotic [3, 18] was 0.5. For the same compound, the MICcombo [3, 19] was 0.25 µg/mL, the MICantibiotic ([4]; ATCC 25922, antibiotic alone (Supplementary Table 7)) was 0.125 and the MICcombo ([4]; ATCC 25922, antibiotic with dUSTBβP 3 at 8 μg/mL) was 0.031 µg/mL. For the same compound, the MIC ([5]; 259-96196) was 1 µg/mL, the MIC ([5]; 262-101856) was 1 µg/mL and the MIC ([5]; 264-104354) was 1 µg/mL. The MIC [5]; 91433 was 4 µg/mL, the MIC [5]; 114228 was 4 µg/mL and the MIC [6]; 92247 was 4 µg/mL. It also gave an MIC [6]; 110193 of 0.5 µg/mL, an MIC ([6]; AB027) of 0.25 µg/mL and an MIC ([6]; AB031) of 0.25 µg/mL. It also gave an MIC ([6]; LAC-4) of 0.125 µg/mL, an MIC ([7]; 94393 (mcr-1 +)) of 4 µg/mL and an MIC ([7]; 94474 (mcr-1 +)) of 16 µg/mL. For the same compound, the MIC [7]; 107115 was 0.125 µg/mL, the MIC [8]; 113250 was > 16 µg/mL and the MIC [8]; 113254 was > 16 µg/mL. For the same compound, the MIC [8]; 116381 was 1 µg/mL, the MIC [9]; 117029 was 0.25 µg/mL and the MIC [9]; 118564 was > 16 µg/mL. For the same compound, the MIC [9]; 121187 was > 16 µg/mL and the “In vivo elimination half-life” value ([1]; in vivo) was 5 h.
With `CCCCCCCC(=O)NC(CCCNC(=N)N)CC(=O)NCCCN(CCCNC(=O)CC(CCCNC(=N)N)NC(=O)CCCCCCC)CC(=O)NC(CCCNC(=N)N)CC(N)=O` (centres unmarked) [dUSTBβP 3] the hemolysis at 45 min, 1.5625 µM (in vitro [10]) was 3.23 ± 0.08%, the hemolysis at 45 min, 3.125 µM (in vitro [10]) was 3.32 ± 0.16% and the hemolysis at 45 min, 6.25 µM (in vitro [10]) was 3.18 ± 0.05%. It also gave a hemolysis at 45 min, 12.5 µM (in vitro [10]) of 3.28 ± 0.12%, a hemolysis at 45 min, 25 µM (in vitro [10]) of 3.35 ± 0.09% and a hemolysis at 45 min, 50 µM (in vitro [10]) of 3.43 ± 0.49%. It also gave a hemolysis at 45 min, 100 µM (in vitro [10]) of 4.17 ± 1.29%, a hemolysis at 45 min, 200 µM (in vitro [10]) of 4.59 ± 2.42% and an MIC (P. aeruginosa PAO1) of 128 µg/mL (≈ 135 µM). For the same compound, the MIC (A. baumannii ATCC 17978 [11]) was >128 µg/mL, the MIC (E. coli ATCC 25922 [12]) was 128 µg/mL (≈ 135 µM) and the FICI ([4]; ATCC 25922, 18 h) was 0.064. For the same compound, the “MIC of compound alone” value [13] was 16 µg/mL, the FICI (MDR K. pneumoniae) was < 0.156 and the “OM permeabilization, NPN fluorescence” value (A. baumannii ATCC 17978 [14]) was “dose-dependently permeabilizes the OM”. The “OM permeabilization, NPN fluorescence” value (E. coli ATCC 25922 [15]) was “dose-dependently permeabilizes the OM”, the half-life at 1 μM (in vitro [16]) was 10.4 ± 3.7 h and the remaining at 2 h, 1 μM (in vitro [16]) was 86.8 ± 3.7%. It also gave a viability at 48 h, 125 µM (in vitro [17]) of 86.4 ± 8.7% and a CC50 at 48 h (Cell viability assay) of 101 µM.

Reference: article PMC8733726, “Dioctanoyl Ultrashort Tetrabasic β-Peptides Sensitize Multidrug-Resistant Gram-Negative Bacteria to Novobiocin and Rifampicin” (Frontiers in Microbiology, 2021)
